Measured values published in US11267825B2 (AICURIS GMBH & CO. KG, priority 2017, dated 2022).

Key:
HBV = test: Determination of HBV DNA from the supernatants of HepAD38 cells (anti-HBV activity); assay type: cell-based, hepatitis B virus; settings: Hepatitis B virus, 144 h; HBV DNA in HepAD38 supernatant at day 6; read-out: Cell Activity (EC50)
Procedure, shortened: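 EC50 values were obtained by non-linear regression of HBV DNA copy numbers measured by qPCR against pCH-9/3091 plasmid standards. The DNA came from filtered supernatants collected on day 6. Before that, tetracycline-withdrawn HepAD38 cells had been exposed to serial half-log compound dilutions, with tetracycline-treated cells as the non-producing control.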

HBV core protein = HBV core protein (UniProt P03146); assay type: biochemical; settings: read-out: Assembly Activity (IC50); BODIPY-FL labelled core protein, assembly started with NaCl, read after 6 min
Procedure, shortened: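 Compounds tested at 8 concentrations in 0.5-log steps from 100, 31.6 or 10 μM against 1.0–2.0 μM BODIPY-FL-labelled Cys150 core dimers (residues 1–149), 50 mM HEPES pH 7.5. NaCl ([…] final) triggered assembly; quenching read at 6 min, 477/525 nm, with 2.5 M and 0 M NaCl as controls; EC50 by nonlinear fit.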

HBV core protein, sequence (P03146 whole entry, looked up, the tested form may be a part): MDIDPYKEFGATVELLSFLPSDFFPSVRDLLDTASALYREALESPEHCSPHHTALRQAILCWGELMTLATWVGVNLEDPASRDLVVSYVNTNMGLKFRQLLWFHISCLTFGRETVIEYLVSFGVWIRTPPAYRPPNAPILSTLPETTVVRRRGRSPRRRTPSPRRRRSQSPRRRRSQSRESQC

Structure (SMILES): CC(C)[C@H](N)C(=O)OCC1(CNc2nc3c(s2)CN(C(=O)c2cc4c(Cl)cc(F)cc4[nH]2)CC3)CC1 [Example 229, [1-({[5-(4-chloro-6-fluoro-1H-indole-2-carbonyl)-4H,5H,6H,7H-[1,3]thiazolo[5,4-c]pyridin-2-yl]amino}methyl)cyclopropyl]methyl (2S)-2-amino-3-methylbutanoate]
- EC50 (HBV): < 1 µM
- IC50 (HBV core protein): < 5 µM

Structure (SMILES): O=C(c1cc2ccccc2[nH]1)N1CCc2nc(NC3(CO)CC3)sc2C1 [Example 230, (1-{[5-(1H-indole-2-carbonyl)-4H,5H,6H,7H-[1,3]thiazolo[5,4-c]pyridin-2-yl]amino}cyclopropyl)methanol]
- EC50 (HBV): < 1 µM
- IC50 (HBV core protein): < 5 µM

Structure (SMILES): COC1COCCC1Nc1nc2c(s1)CN(C(=O)c1cc3ccccc3[nH]1)CC2 (stereo not drawn) [Example 231, 5-(1H-indole-2-carbonyl)-N-(3-methoxyoxan-4-yl)-4H,5H,6H,7H-[1,3]thiazolo[5,4-c]pyridin-2-amine]
- EC50 (HBV): < 1 µM
- IC50 (HBV core protein): 5 to 10 µM

Structure (SMILES): CC(=O)N1CCOCC1CNc1nc2c(s1)CN(C(=O)c1cc3ccccc3[nH]1)CC2 (stereo not drawn) [Example 232, 1-[3-({[5-(1H-indole-2-carbonyl)-4H,5H,6H,7H-[1,3]thiazolo[5,4-c]pyridin-2-yl]amino}methyl)morpholin-4-yl]ethan-1-one]
- EC50 (HBV): < 1 µM
- IC50 (HBV core protein): 5 to 10 µM

Structure (SMILES): O=C(CNc1nc2c(s1)CN(C(=O)c1cc3ccccc3[nH]1)CC2)N1CCCCC1 [Example 233, 2-{[5-(1H-indole-2-carbonyl)-4H,5H,6H,7H-[1,3]thiazolo[5,4-c]pyridin-2-yl]amino}-1-(piperidin-1-yl)ethan-1-one]
- EC50 (HBV): 1 to 10 µM
- IC50 (HBV core protein): < 100 µM

Structure (SMILES): O=C(c1cc2cc(F)c(Cl)cc2[nH]1)N1CCc2nc(NCC3(CO)CC3)sc2C1 [Example 234, [1-({[5-(6-chloro-5-fluoro-1H-indole-2-carbonyl)-4H,5H,6H,7H-[1,3]thiazolo[5,4-c]pyridin-2-yl]amino}methyl)cyclopropyl]methanol]
- EC50 (HBV): < 1 µM
- IC50 (HBV core protein): < 5 µM

Structure (SMILES): CC(C)[C@H](N)C(=O)OCC1(CNc2nc3c(s2)CN(C(=O)c2cc4ccccc4[nH]2)CC3)CC1 [Example 235, [1-({[5-(1H-indole-2-carbonyl)-4H,5H,6H,7H-[1,3]thiazolo[5,4-c]pyridin-2-yl]amino}methyl)cyclopropyl]methyl (2S)-2-amino-3-methylbutanoate]
- EC50 (HBV): < 1 µM
- IC50 (HBV core protein): < 5 µM

Structure (SMILES): CCc1ccc(F)c2[nH]c(C(=O)N3CCc4nc(NCC5(CO)CC5)sc4C3)cc12 [Example 236, [1-({[5-(4-ethyl-7-fluoro-1H-indole-2-carbonyl)-4H,5H,6H,7H-[1,3]thiazolo[5,4-c]pyridin-2-yl]amino}methyl)cyclopropyl]methanol]
- EC50 (HBV): < 1 µM
- IC50 (HBV core protein): < 5 µM

Structure (SMILES): O=C(c1cc2ccccc2[nH]1)N1CCc2nc(NCC3(CO)CCOCC3)sc2C1 [Example 237, [4-({[5-(1H-indole-2-carbonyl)-4H,5H,6H,7H-[1,3]thiazolo[5,4-c]pyridin-2-yl]amino}methyl)oxan-4-yl]methanol]
- EC50 (HBV): < 1 µM
- IC50 (HBV core protein): < 5 µM

Structure (SMILES): CC(C)(C)OC(=O)N1CCOCC1CNc1nc2c(s1)CN(C(=O)c1cc3ccccc3[nH]1)CC2 (stereo not drawn) [Example 238, tert-butyl 3-({[5-(1H-indole-2-carbonyl)-4H,5H,6H,7H-[1,3]thiazolo[5,4-c]pyridin-2-yl]amino}methyl)morpholine-4-carboxylate]
- EC50 (HBV): 1 to 10 µM
- IC50 (HBV core protein): < 100 µM

Structure (SMILES): O=C(c1cc2cc(F)c(Cl)cc2[nH]1)N1CCc2nc(NCC3CCOC3)sc2C1 (stereo not drawn) [Example 239, 5-(6-chloro-5-fluoro-1H-indole-2-carbonyl)-N-[(oxolan-3-yl)methyl]-4H,5H,6H,7H-[1,3]thiazolo[5,4-c]pyridin-2-amine]
- EC50 (HBV): < 1 µM
- IC50 (HBV core protein): < 5 µM

Structure (SMILES): O=C(c1cc2ccccc2[nH]1)N1CCc2nc(NC[C@@H]3COC[C@@H]3O)sc2C1 [Example 241, (3R,4R)-4-({[5-(1H-indole-2-carbonyl)-4H,5H,6H,7H-[1,3]thiazolo[5,4-c]pyridin-2-yl]amino}methyl)oxolan-3-ol]
- EC50 (HBV): < 1 µM
- IC50 (HBV core protein): < 5 µM
